The supplement of paper PMC8149375

Columns and labels:
Conditions in all cases: treatment: drug alone; 5 days
UO-31 [1] = experiment: GI50, drug alone; higher = less potent
Experimental: (§1)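 Primary HTS: 8 RCC cell lines treated with 8 doses (up to 10 uM) of each library drug alone for 5 days; viability read by CellTiter-Glo and normalised to DMSO. GI50 was fitted with XLfit (4-parameter), AUC is the area under the dose-response curve, and minimum viability is the lowest fraction of DMSO viability across doses.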

ACHN [2] = experiment: GI50, drug alone; higher = less potent
Experimental: as §1

A498 [3] = experiment: GI50, drug alone; higher = less potent
Experimental: as §1

SN12C [4] = experiment: GI50, drug alone; higher = less potent
Experimental: as §1

786-O [5] = experiment: GI50, drug alone; higher = less potent
Experimental: as §1

769-P [6] = experiment: GI50, drug alone; higher = less potent
Experimental: as §1

CAKI-1 [7] = experiment: GI50, drug alone; higher = less potent
Experimental: as §1

TK-10 [8] = experiment: GI50, drug alone; higher = less potent
Experimental: as §1

UO-31 [9] = experiment: AUC of dose-response viability curve, drug alone (arbitrary (AUC of normalised viability)); higher = less growth inhibition
Experimental: as §1

ACHN [10] = experiment: as above
Experimental: as §1

A498 [11] = experiment: as above
Experimental: as §1

SN12C [12] = experiment: as above
Experimental: as §1

786-O [13] = experiment: as above
Experimental: as §1

769-P [14] = experiment: as above
Experimental: as §1

CAKI-1 [15] = experiment: as above
Experimental: as §1

TK-10 [16] = experiment: as above
Experimental: as §1

UO-31 [17] = experiment: minimum viability across doses, drug alone, relative to DMSO (fraction); higher = less growth inhibition
Experimental: as §1

ACHN [18] = experiment: as above
Experimental: as §1

A498 [19] = experiment: as above
Experimental: as §1

SN12C [20] = experiment: as above
Experimental: as §1

786-O [21] = experiment: as above
Experimental: as §1

769-P [22] = experiment: as above
Experimental: as §1

CAKI-1 [23] = experiment: as above
Experimental: as §1

TK-10 [24] = experiment: as above
Experimental: as §1

Row | GI50, drug alone (ACHN [2]) [nM] | GI50, drug alone (786-O [5]) [nM] | SMILES | GI50, drug alone (UO-31 [1]) [µM] | GI50, drug alone (A498 [3]) [µM] | GI50, drug alone (SN12C [4]) [µM] | GI50, drug alone (769-P [6]) [µM] | GI50, drug alone (CAKI-1 [7]) [µM] | GI50, drug alone (TK-10 [8]) [µM] | AUC of dose-response viability curve (UO-31 [9]) | AUC of dose-response viability curve (ACHN [10]) | AUC of dose-response viability curve (A498 [11]) | AUC of dose-response viability curve (SN12C [12]) | AUC of dose-response viability curve (786-O [13]) | AUC of dose-response viability curve (769-P [14]) | AUC of dose-response viability curve (CAKI-1 [15]) | AUC of dose-response viability curve (TK-10 [16]) | minimum viability across doses (UO-31 [17]) | minimum viability across doses (ACHN [18]) | minimum viability across doses (A498 [19]) | minimum viability across doses (SN12C [20]) | minimum viability across doses (786-O [21]) | minimum viability across doses (769-P [22]) | minimum viability across doses (CAKI-1 [23]) | minimum viability across doses (TK-10 [24])
1 | 2120 | > 10000 | O=C(c1ccc(/C=C/c2n[nH]c3ccccc23)cc1)N1CCNCC1 [KW 2449] | > 10 | > 10 | 4.76 | > 10 | 3.54 | > 10 | 4.33 | 2.67 | 3.72 | 3.03 | 3.77 | 3.12 | 2.93 | 3.23 | 0.86 | 0.215 | 0.828 | 0.241 | 0.814 | 0.549 | 0.268 | 0.645
2 | 75.5 | 26.8 | O=C(Cc1ccc(-c2ccc(OCCN3CCOCC3)cc2)cn1)NCc1ccccc1 [KX2-391] | 0.0852 | 0.0893 | 0.115 | 0.0606 | 0.0797 | 0.193 | 1.48 | 1.66 | 1.84 | 1.72 | 0.9 | 1.43 | 1.67 | 1.95 | 0.00967 | 0.113 | 0.177 | 0.102 | 0.00471 | 0.0797 | 0.142 | 0.27
3 | > 10000 | > 10000 | COc1cc2nccc(Oc3ccc(NC(=O)Nc4ccc(F)cc4F)c(F)c3)c2cc1OC [Ki8751] | 0.445 | > 10 | > 10 | > 10 | 7.43 | > 10 | 2.83 | 3.13 | 5.49 | 3.45 | 3.06 | 3.31 | 3.34 | 3.08 | 0.00557 | 0.574 | 1 | 0.877 | 0.673 | 0.559 | 0.403 | 0.72
4 | 5290 | > 10000 | CS(=O)(=O)CCNCc1ccc(-c2ccc3ncnc(Nc4ccc(OCc5cccc(F)c5)c(Cl)c4)c3c2)o1.Cc1ccc(S(=O)(=O)O)cc1.Cc1ccc(S(=O)(=O)O)cc1 [Lapatinib Ditosylate (Tykerb)] | > 10 | > 10 | > 10 | 7.1 | 9.61 | 3.78 | 4.64 | 2.78 | 3.99 | 3.16 | 2.9 | 2.86 | 3.24 | 2.51 | 1.05 | 0.419 | 0.929 | 0.734 | 0.471 | 0.455 | 0.48 | 0.39
5 | > 10000 | < 3 | Nc1cccc2c1CN(C1CCC(=O)NC1=O)C2=O (stereo not drawn) [Lenalidomide (Revlimid)] | > 10 | > 10 | > 10 | > 10 | > 10 | > 10 | 5.03 | 3.29 | 4.04 | 3.28 | 1.86 | 3.64 | 3.56 | 3.21 | 1.19 | 0.878 | 0.98 | 0.865 | 0.325 | 0.963 | 0.972 | 0.864
6 | 7460 | 9400 | Cc1ccc(F)c(NC(=O)Nc2ccc(-c3cccc4[nH]nc(N)c34)cc2)c1 [Linifanib (ABT-869)] | > 10 | > 10 | 6.98 | > 10 | 9.96 | 5.72 | 4.69 | 3.34 | 3.32 | 3.28 | 3.03 | 3.21 | 3.49 | 2.99 | 1.08 | 0.279 | 0.672 | 0.242 | 0.472 | 0.503 | 0.497 | 0.309
7 | > 10000 | > 10000 | C[C@]1(O)C[C@@H](c2nc(-c3ccc4ccc(-c5ccccc5)nc4c3)c3c(N)nccn32)C1 [Linsitinib (OSI-906)] | > 10 | > 10 | > 10 | > 10 | > 10 | > 10 | 4.26 | 3.06 | 4.2 | 3.35 | 2.85 | 3.19 | 2.99 | 2.79 | 0.904 | 0.495 | 0.972 | 0.915 | 0.663 | 0.878 | 0.562 | 0.651
8 | > 10000 | > 10000 | Cn1cnc(-c2cc3nccc(Oc4ccc(NC(=S)NC(=O)Cc5ccccc5)cc4F)c3s2)c1 [MGCD-265] | > 10 | > 10 | > 10 | > 10 | > 10 | > 10 | 5.1 | 3.43 | 4.09 | 3.45 | 3.29 | 3.46 | 3.59 | 3.44 | 1.01 | 0.76 | 0.977 | 0.674 | 0.785 | 0.898 | 0.635 | 0.938
9 | 67.2 | 2530 | Cl.Cl.NC1(c2ccc(-c3nc4ccn5c(=O)[nH]nc5c4cc3-c3ccccc3)cc2)CCC1 [MK-2206 dihydrochloride] | 9.92 | > 10 | > 10 | > 10 | 5.82 | 4.66 | 3.43 | 2.13 | 3.78 | 3.04 | 2.51 | 3.04 | 2.92 | 2.55 | 0.459 | 0.383 | 0.917 | 0.655 | 0.418 | 0.626 | 0.464 | 0.435
10 | 854 | 30.4 | O=C(O)[C@]1(Cc2cccc(Nc3nccs3)n2)CC[C@@H](Oc2cccc(Cl)c2F)CC1 [MK-5108 (VX-689)] | 0.908 | 3.72 | 1.32 | 2.61 | 3.25 | 3.19 | 3.38 | 2.35 | 3.44 | 2.46 | 1.01 | 3.08 | 2.88 | 2.65 | 0.0125 | 0.262 | 0.41 | 0.154 | 0.00733 | 0.179 | 0.419 | 0.404
11 | 1830 | 523 | O=C(O)c1ccc(Nc2ncc3c(n2)-c2ccc(Cl)cc2C(c2c(F)cccc2F)=NC3)cc1 [MLN8054] | > 10 | > 10 | 6.21 | 5.56 | 3.18 | > 10 | 3.59 | 2.48 | 3.53 | 3.01 | 2.52 | 2.85 | 2.84 | 2.93 | 0.748 | 0.246 | 0.562 | 0.427 | 0.038 | 0.365 | 0.4 | 0.668
12 | 207 | 71.1 | COc1cc(Nc2ncc3c(n2)-c2ccc(Cl)cc2C(c2c(F)cccc2OC)=NC3)ccc1C(=O)O [MLN8237 (Alisertib)] | > 10 | > 10 | 3.14 | 0.888 | 0.67 | 7.87 | 3.14 | 1.81 | 3.27 | 2.85 | 1.47 | 2.44 | 2.31 | 2.78 | 0.531 | 0.194 | 0.569 | 0.458 | 0.0512 | 0.316 | 0.221 | 0.492
13 | 9540 | 5570 | Cc1ccc(NC(=O)c2ccc(CN3CCN(C)CC3)cc2)cc1Nc1nc(-c2cccnc2)cs1 [Masitinib (AB1010)] | > 10 | > 10 | 5.8 | > 10 | > 10 | > 10 | 4.02 | 3.23 | 3.2 | 3.01 | 3.22 | 3.32 | 3.47 | 3.39 | 1 | 0.482 | 0.635 | 0.292 | 0.168 | 0.749 | 0.784 | 0.651
14 | > 10000 | > 10000 | CC1(C)CNc2cc(NC(=O)c3cccnc3NCc3ccncc3)ccc21.O=P(O)(O)O.O=P(O)(O)O [Motesanib Diphosphate] | > 10 | > 10 | > 10 | > 10 | > 10 | > 10 | 4.68 | 3.4 | 3.77 | 3.19 | 3.26 | 3.53 | 3.36 | 3.09 | 0.976 | 0.818 | 0.86 | 0.832 | 0.777 | 0.943 | 0.756 | 0.757
15 | 116 | 32.9 | FC(F)(F)c1ccc(/C=C/c2nc(COc3ccc(CCCCn4ccnn4)cc3)co2)cc1 [Mubritinib (TAK 165)] | 0.058 | 0.154 | 0.0429 | > 10 | > 10 | 0.147 | 1.39 | 1.78 | 2.12 | 1.14 | 1.04 | 2.86 | 2.96 | 1.78 | 0.033 | 0.125 | 0.151 | 0.0401 | 0.0382 | 0.586 | 0.765 | 0.21
16 | 3350 | 5940 | Nc1ncnc2c1c(-c1cccc(OCc3ccccc3)c1)cn2[C@H]1C[C@H](CN2CCCC2)C1 [NVP-ADW742] | 8.26 | 9.56 | > 10 | > 10 | 6.48 | 5.26 | 3.24 | 2.38 | 3.59 | 3.2 | 2.71 | 3.14 | 3.01 | 2.63 | 0.0137 | 0.275 | 0.377 | 0.612 | 0.19 | 0.478 | 0.362 | 0.329
17 | 14.9 | 12.9 | COc1ccc(-c2ccc3ncc4c(c3c2)n(-c2ccc(N3CCNCC3)c(C(F)(F)F)c2)c(=O)n4C)cn1.O=C(O)/C=C\C(=O)O [NVP-BGT226] | 0.0113 | 0.0291 | 0.0158 | 0.0362 | 0.0272 | 0.0202 | 0.578 | 0.785 | 1.21 | 0.857 | 0.728 | 1.22 | 1.03 | 0.903 | 0.00819 | 0.00135 | 0.0133 | 0.00358 | 0.00447 | 0.00969 | 0.00344 | 0.00394
